Assays:
Assay type in all cases: in vivo
Soybean Looper (SL) = test: Insect feeding assay (Example 4), soybean looper; parameters: key: “+” represents mortality or stunting significantly different compared to the untreated control; “−” represents no significant difference in mortality or stunting compared to the untreated control; details: 0.05 mg/mL diet overlay, 6 days, 27° C.
Protocol: (§1) For evaluating control of insect species in this example, the test unit consisted of a 96-well bioassay plate filled with species-specific artificial diet. Compounds were dissolved in DMSO and added as diet overlay to the indicated concentration and dried/maintained overnight before infestation. Once dry, the bioassay plates were infested with a single neonate larva (nymph for lygus) per well. The bioassay plates were held for 6 days in an incubator at 27° C. and 50% relative humidity. Each well was assessed for infestation and contamination. Wells that were contaminated or not infested were not included in the stunting and mortality assessment. A stunting score was reported based on the relative size of the survivors within the 8-well column with averaging across a 3 column replicate. Untreated control insects were used as a reference.

Fall Armyworm (FAW) = test: Insect feeding assay (Example 4), fall armyworm; parameters: key: “+” represents mortality or stunting significantly different compared to the untreated control; “−” represents no significant difference in mortality or stunting compared to the untreated control; details: 0.05 mg/mL diet overlay, 6 days, 27° C.
Protocol: as §1

[1] = tested on: Western Tarnished Plantbug; test: Insect feeding assay (Example 4), Western tarnished plantbug; parameters: key: “+” represents mortality or stunting significantly different compared to the untreated control; “−” represents no significant difference in mortality or stunting compared to the untreated control; details: 0.05 mg/mL diet overlay, nymph, 6 days, 27° C.
Protocol: as §1

[2] = tested on: Yellow Fever Mosquito (YFM); test: Insect feeding assay (Example 3), yellow fever mosquito; parameters: key: A “+” score was given to samples which showed any level of stunting and/or mortality higher than that of the untreated controls; A “−” score was given to samples which showed no activity; details: 0.1 mginiL diet overlay, 6 days, 27° C., summary of two replicates
Protocol: (§2) For evaluating control of insect species, the test unit consisted of a 96-well bioassay plate filled with a species-specific artificial diet. Compounds were dissolved in DMSO and added as diet overlay to the indicated concentration, and dried/maintained overnight before infestation. Once dry, the bioassay plates were infested with a single neonate larva (nymph for lygus) per well. The bioassay plates were then held for 6 days in an incubator at 27° C. and 50% relative humidity. Sample response was then visually assessed based on mortality and stunting of the insect. […] Western corn rootworm data represents a summary of three replicates. Data for all other insect species represents a summary of two replicates.

[3] = tested on: Yellow Fever Mosquito (YEW); test: Insect feeding assay (Example 4), yellow fever mosquito; parameters: key: “+” represents mortality or stunting significantly different compared to the untreated control; “−” represents no significant difference in mortality or stunting compared to the untreated control; details: 0.05 mg/mL diet overlay, 6 days, 27° C.
Protocol: as §1

Diamondback Moth (DBM) [4] = test: Insect feeding assay (Example 4), diamondback moth; parameters: key: “+” represents mortality or stunting significantly different compared to the untreated control; “−” represents no significant difference in mortality or stunting compared to the untreated control; details: 0.05 mg/mL diet overlay, 6 days, 27° C.
Protocol: as §1

[5] = tested on: Western Corn Root Worm (WCR); test: Insect feeding assay (Example 3), Western corn rootworm; parameters: key: A “+” score was given to samples which showed any level of stunting and/or mortality higher than that of the untreated controls; A “−” score was given to samples which showed no activity; details: 0.1 mg/mL diet overlay, 6 days, 27° C., summary of three replicates
Protocol: as §2

[6] = tested on: Western Corn Rootworm (WCR); test: Insect feeding assay (Example 4), Western corn rootworm; parameters: key: “+” represents mortality or stunting significantly different compared to the untreated control; “−” represents no significant difference in mortality or stunting compared to the untreated control; details: 0.05 mg/mL diet overlay, 6 days, 27° C.
Protocol: as §1

Diamondback Moth (DBM) [7] = test: Insect feeding assay (Example 3), diamondback moth; parameters: key: A “+” score was given to samples which showed any level of stunting and/or mortality higher than that of the untreated controls; A “−” score was given to samples which showed no activity; details: 0.1 mg/mL diet overlay, 6 days, 27° C., summary of two replicates
Protocol: as §2

## Cc1cc(C)c(-c2nc(-c3ccccc3)c(-c3ccccc3)[nH]2)c(C)c1 [I-i]
Soybean Looper (SL)
  SL (0.05 mg/mL) mortality or stunting: −
Fall Armyworm (FAW)
  FAW (0.05 mg/mL) mortality or stunting: −
[1]
  WTP (0.05 mg/mL mortality or stunting): −
[2]
  YEM (0.1 mginiL) mortality and stunting score: +
[3]
  YFM (0.05 mg/mL) mortality or stunting: −
Diamondback Moth (DBM) [4]
  DBM (0.05 mg/mL) mortality or stunting: +
[5]
  WCR (0.1 mg/mL) mortality and stunting score: +

## Cc1ccc(C)c(-c2nc(-c3c(Cl)cccc3Cl)[nH]c2-c2ccccc2)c1 [I-ii]
Soybean Looper (SL)
  SL (0.05 mg/mL) mortality or stunting: +
Fall Armyworm (FAW)
  FAW (0.05 mg/mL) mortality or stunting: +
[1]
  WTP (0.05 mg/mL mortality or stunting): +
[2]
  YEM (0.1 mginiL) mortality and stunting score: +
[3]
  YFM (0.05 mg/mL) mortality or stunting: +
Diamondback Moth (DBM) [4]
  DBM (0.05 mg/mL) mortality or stunting: +
[5]
  WCR (0.1 mg/mL) mortality and stunting score: +

## Cc1ccc(C)c(-c2nc(-c3c(F)cccc3Cl)[nH]c2-c2ccccc2)c1 [I-iii]
[2]
  YEM (0.1 mginiL) mortality and stunting score: +

## COc1ccc(-c2nc(-c3ccccc3)c(-c3ccccc3)[nH]2)c(OC)c1 [I-iv]
Soybean Looper (SL)
  SL (0.05 mg/mL) mortality or stunting: −
Fall Armyworm (FAW)
  FAW (0.05 mg/mL) mortality or stunting: −
[1]
  WTP (0.05 mg/mL mortality or stunting): −
[2]
  YEM (0.1 mginiL) mortality and stunting score: +
[3]
  YFM (0.05 mg/mL) mortality or stunting: +
Diamondback Moth (DBM) [4]
  DBM (0.05 mg/mL) mortality or stunting: +
[5]
  WCR (0.1 mg/mL) mortality and stunting score: +

## CSc1ccc(-c2nc(-c3ccc(C)cc3)c(-c3ccc(C)cc3)[nH]2)cc1 [I-ix]
Soybean Looper (SL)
  SL (0.05 mg/mL) mortality or stunting: +
Fall Armyworm (FAW)
  FAW (0.05 mg/mL) mortality or stunting: +
[6]
  WCR (0.05 mg/mL) mortality or stunting: +
[1]
  WTP (0.05 mg/mL mortality or stunting): −
[3]
  YFM (0.05 mg/mL) mortality or stunting: −
Diamondback Moth (DBM) [4]
  DBM (0.05 mg/mL) mortality or stunting: +

## CCOc1ccccc1-c1nc(-c2ccccc2)c(-c2ccccc2)[nH]1 [I-v]
Soybean Looper (SL)
  SL (0.05 mg/mL) mortality or stunting: −
Fall Armyworm (FAW)
  FAW (0.05 mg/mL) mortality or stunting: −
[1]
  WTP (0.05 mg/mL mortality or stunting): −
[3]
  YFM (0.05 mg/mL) mortality or stunting: −
Diamondback Moth (DBM) [4]
  DBM (0.05 mg/mL) mortality or stunting: −
[5]
  WCR (0.1 mg/mL) mortality and stunting score: +

## C#CCOc1ccccc1-c1nc(-c2ccccc2)c(-c2ccccc2)[nH]1 [I-vi]
Soybean Looper (SL)
  SL (0.05 mg/mL) mortality or stunting: −
Fall Armyworm (FAW)
  FAW (0.05 mg/mL) mortality or stunting: −
[1]
  WTP (0.05 mg/mL mortality or stunting): +
[3]
  YFM (0.05 mg/mL) mortality or stunting: +
Diamondback Moth (DBM) [4]
  DBM (0.05 mg/mL) mortality or stunting: +

## Clc1cccc(-c2[nH]c(-c3ccc(Cl)cc3Cl)nc2-c2ccccc2)c1 [I-vii]
Soybean Looper (SL)
  SL (0.05 mg/mL) mortality or stunting: +
Fall Armyworm (FAW)
  FAW (0.05 mg/mL) mortality or stunting: +
[1]
  WTP (0.05 mg/mL mortality or stunting): −
[3]
  YFM (0.05 mg/mL) mortality or stunting: +
Diamondback Moth (DBM) [4]
  DBM (0.05 mg/mL) mortality or stunting: +

## COc1ccc(-c2nc(-c3ccccc3)c(-c3ccccc3)[nH]2)c(OC)c1OC [I-viii]
Soybean Looper (SL)
  SL (0.05 mg/mL) mortality or stunting: −
Fall Armyworm (FAW)
  FAW (0.05 mg/mL) mortality or stunting: −
[6]
  WCR (0.05 mg/mL) mortality or stunting: +
[1]
  WTP (0.05 mg/mL mortality or stunting): −
[3]
  YFM (0.05 mg/mL) mortality or stunting: +
Diamondback Moth (DBM) [4]
  DBM (0.05 mg/mL) mortality or stunting: +

## O=C(c1ccc(F)cc1)c1ccc(-c2nc(-c3cccc(F)c3)[nH]c2-c2ccccc2)cc1 [I-x]
Soybean Looper (SL)
  SL (0.05 mg/mL) mortality or stunting: +
Fall Armyworm (FAW)
  FAW (0.05 mg/mL) mortality or stunting: +
[6]
  WCR (0.05 mg/mL) mortality or stunting: +
[1]
  WTP (0.05 mg/mL mortality or stunting): +
[3]
  YFM (0.05 mg/mL) mortality or stunting: −
Diamondback Moth (DBM) [4]
  DBM (0.05 mg/mL) mortality or stunting: +

## C=CCNC(=O)c1cn(-c2ccc(C)cc2)nc1-c1ccccc1 [II-i]
[2]
  YEM (0.1 mginiL) mortality and stunting score: +
Diamondback Moth (DBM) [7]
  DBM (0.1 mg/mL) mortality and stunting score: +
Diamondback Moth (DBM) [4]
  DBM (0.05 mg/mL) mortality or stunting: +

## CC1CCCCC1NC(=O)c1cn(-c2ccccc2)nc1-c1cccs1 (stereo not drawn) [II-ii]
Soybean Looper (SL)
  SL (0.05 mg/mL) mortality or stunting: −
Fall Armyworm (FAW)
  FAW (0.05 mg/mL) mortality or stunting: −
[1]
  WTP (0.05 mg/mL mortality or stunting): −
[3]
  YFM (0.05 mg/mL) mortality or stunting: −
Diamondback Moth (DBM) [7]
  DBM (0.1 mg/mL) mortality and stunting score: +
Diamondback Moth (DBM) [4]
  DBM (0.05 mg/mL) mortality or stunting: −

## CCOCCNC(=O)c1cn(C)nc1-c1ccccc1Cl [II-iii]
Soybean Looper (SL)
  SL (0.05 mg/mL) mortality or stunting: −
Fall Armyworm (FAW)
  FAW (0.05 mg/mL) mortality or stunting: −
[1]
  WTP (0.05 mg/mL mortality or stunting): −
[2]
  YEM (0.1 mginiL) mortality and stunting score: +
[3]
  YFM (0.05 mg/mL) mortality or stunting: −
Diamondback Moth (DBM) [4]
  DBM (0.05 mg/mL) mortality or stunting: −

## Cn1cc(C(=O)NCCC2CCCO2)c(-c2ccccc2Cl)n1 (stereo not drawn) [II-iv]
Soybean Looper (SL)
  SL (0.05 mg/mL) mortality or stunting: −
Fall Armyworm (FAW)
  FAW (0.05 mg/mL) mortality or stunting: −
[1]
  WTP (0.05 mg/mL mortality or stunting): −
[2]
  YEM (0.1 mginiL) mortality and stunting score: +
[3]
  YFM (0.05 mg/mL) mortality or stunting: −
Diamondback Moth (DBM) [4]
  DBM (0.05 mg/mL) mortality or stunting: −

## Cn1cc(C(=O)NC2CCSCC2)c(-c2ccccc2Cl)n1 [II-v]
[2]
  YEM (0.1 mginiL) mortality and stunting score: +

— patent US10827755B2, “Insecticidal compositions and methods” (priority 2015, dated 2020)
